Measurements: ChEMBL document CHEMBL1201862, “PubChem BioAssay data set” (2004)
The source made the active and inactive calls.

Assays:
Melanocortin receptor 4 = Melanocortin receptor 4 (Homo sapiens, UniProt P32245); assay type: functional, cell-based;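 further: Cell-based assay with luminescence read-out, confirmatory dose-response testing for agonist activity of biased ligands at MC4R; human U2OS cells with tagged receptor and beta-arrestin; potency of agonists that increase receptor coupling to beta-arrestin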
[1] = NIH-3T3 fibroblast cytotoxicity, dose response, cytotoxicity control, cell-based, fluorescence, Alamar Blue, secondary assay (AID 2327); assay type: functional;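 further: NIH-3T3 mouse fibroblasts cultured with fluconazole at 8 µg/mL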
[2] = fluconazole-exposed Candida albicans growth modulators – fluorescence, retest, confirmation (AID 2467); assay type: functional, cell-based
INS1 = experiment: INS-1E survival protection against cytokine death – cell-based, luminescence, retest, dose response (AID 449756); assay type: functional; conditions: Rattus norvegicus;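 further: cell death triggered by IL-1 beta plus TNF-alpha plus IFN-gamma mixture; protective hits raise ATP signal compared with cytokine alone wells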
[3] = target: T1, Microphthalmia-associated transcription factor (Homo sapiens, UniProt O75030); experiment: reducers of TRPM1 reporter luminescence, concentration series – cell-based, SK-MEL-5, cherry-picked, set 3, MITF inhibitor project, dose response (AID 493073); assay type: functional;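 further: SK-MEL-5 melanoma cells with luciferase driven by the MITF target TRPM1 promoter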
T1 sequence (O75030 whole entry): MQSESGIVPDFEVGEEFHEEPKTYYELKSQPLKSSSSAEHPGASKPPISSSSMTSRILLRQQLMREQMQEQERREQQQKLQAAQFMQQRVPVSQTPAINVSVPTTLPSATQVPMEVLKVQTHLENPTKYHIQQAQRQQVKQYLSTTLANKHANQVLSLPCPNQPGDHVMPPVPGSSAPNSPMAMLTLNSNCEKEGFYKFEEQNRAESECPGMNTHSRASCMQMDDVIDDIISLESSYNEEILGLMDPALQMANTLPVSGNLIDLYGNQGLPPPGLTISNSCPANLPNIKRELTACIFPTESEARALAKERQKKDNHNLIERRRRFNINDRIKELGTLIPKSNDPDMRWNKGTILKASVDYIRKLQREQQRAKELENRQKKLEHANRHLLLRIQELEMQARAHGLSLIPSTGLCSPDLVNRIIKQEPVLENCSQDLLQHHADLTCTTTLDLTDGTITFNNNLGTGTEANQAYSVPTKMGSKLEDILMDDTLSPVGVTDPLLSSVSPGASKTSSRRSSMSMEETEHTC

[4] = HGIII-sPLA2 enzyme inhibition potency – biochemical, QFRET, IC50, dose response (AID 743457);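 further: green fluorescence rise as the enzyme cleaves BODIPY PC-A2 in liposomes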
[5] = target: T2, Trace amine-associated receptor 1 (Homo sapiens, UniProt Q96RJ0); experiment: Fluorescence-based cell-based high throughput dose response assay to identify agonists of the human trace amine associated receptor 1 (TAAR1).; assay type: functional
T2 sequence (Q96RJ0 whole entry): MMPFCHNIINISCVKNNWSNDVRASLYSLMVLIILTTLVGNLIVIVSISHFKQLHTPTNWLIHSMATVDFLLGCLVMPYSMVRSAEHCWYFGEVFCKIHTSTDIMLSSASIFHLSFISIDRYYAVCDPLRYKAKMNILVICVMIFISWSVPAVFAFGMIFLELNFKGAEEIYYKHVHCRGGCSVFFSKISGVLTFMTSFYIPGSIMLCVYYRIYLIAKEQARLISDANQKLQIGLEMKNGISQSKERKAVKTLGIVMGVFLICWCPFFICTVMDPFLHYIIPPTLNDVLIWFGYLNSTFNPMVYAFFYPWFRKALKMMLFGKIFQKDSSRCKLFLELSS

[6] = NIH3T3 cell viability loss – ATP luminescence, mouse fibroblasts, counter-screen, dose response (AID 2010); assay type: functional, cell-based;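 further: cells exposed to compound for about 90 hours before reading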
[7] = Trypanosoma cruzi growth suppression in host cells – NIH3T3 host cells, beta-gal luminescence, confirmation (AID 2044); assay type: functional, cell-based;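 further: intracellular parasites grown in NIH/3T3 mouse fibroblasts as host cells; luminescent beta-galactosidase reporter signal from transgenic T. cruzi replicating inside host cells; inhibitors lower the luminescence signal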
cells [8] = assay type: functional, cell-based
cells [9] = assay type: functional, cell-based; remark: listed apart in the source
[10] = target: T2, Trace amine-associated receptor 1; experiment: Counterscreen for agonists of the human trace amine associated receptor 1 (hTAAR1): Fluorescence-based cell-based high throughput dose response assay to identify hTAAR1 agonist that also desensitize TAAR1 receptor response.; assay type: functional
Albumin = Albumin (Bos taurus, UniProt P02769); experiment: Counterscreen for inhibitors of T-cell receptor (TCR)-CD3 interaction: Fluorescence-based biochemical high throughput dose response assay to identify inhibitors of T-cell receptor (TCR)-CD3 interaction using a TAMRA-labeled BSA probe.; assay type: functional
Aminopeptidase N = target: T3, Aminopeptidase N (Plasmodium falciparum FcB1/Columbia, UniProt O96935); experiment: malaria alanyl aminopeptidase activity blockers – biochemical, fluorogenic H-Leu-NHMec substrate, 1536-well (AID 1445); parameters: species or system Plasmodium falciparum 3D7, 3D7
T3 sequence (O96935 whole entry): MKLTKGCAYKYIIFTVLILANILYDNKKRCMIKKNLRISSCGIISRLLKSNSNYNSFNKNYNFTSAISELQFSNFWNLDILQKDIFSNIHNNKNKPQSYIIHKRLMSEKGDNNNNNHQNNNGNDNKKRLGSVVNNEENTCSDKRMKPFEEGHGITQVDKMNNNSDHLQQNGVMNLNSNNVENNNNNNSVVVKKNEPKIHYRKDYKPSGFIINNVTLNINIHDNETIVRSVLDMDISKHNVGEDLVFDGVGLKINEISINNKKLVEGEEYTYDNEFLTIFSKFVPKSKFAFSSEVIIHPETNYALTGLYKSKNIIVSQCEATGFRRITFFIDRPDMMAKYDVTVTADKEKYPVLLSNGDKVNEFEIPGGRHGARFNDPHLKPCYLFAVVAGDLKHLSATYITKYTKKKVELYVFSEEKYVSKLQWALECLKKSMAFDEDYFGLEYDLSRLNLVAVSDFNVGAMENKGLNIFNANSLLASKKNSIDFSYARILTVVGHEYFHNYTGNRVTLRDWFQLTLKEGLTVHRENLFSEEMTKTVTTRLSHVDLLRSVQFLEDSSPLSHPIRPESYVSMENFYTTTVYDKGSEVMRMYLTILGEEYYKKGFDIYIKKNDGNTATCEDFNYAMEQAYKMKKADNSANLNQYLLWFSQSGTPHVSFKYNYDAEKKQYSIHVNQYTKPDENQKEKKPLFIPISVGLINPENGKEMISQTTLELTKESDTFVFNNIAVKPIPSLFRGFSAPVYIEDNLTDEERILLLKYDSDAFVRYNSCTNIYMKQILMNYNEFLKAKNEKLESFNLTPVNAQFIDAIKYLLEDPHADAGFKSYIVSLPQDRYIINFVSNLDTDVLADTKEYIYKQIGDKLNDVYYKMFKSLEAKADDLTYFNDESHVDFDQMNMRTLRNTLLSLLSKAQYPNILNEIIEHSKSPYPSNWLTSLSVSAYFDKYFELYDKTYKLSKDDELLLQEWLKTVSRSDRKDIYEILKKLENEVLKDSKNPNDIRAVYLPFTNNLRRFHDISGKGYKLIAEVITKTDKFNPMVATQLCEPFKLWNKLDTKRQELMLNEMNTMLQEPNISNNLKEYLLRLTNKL

cells [11] = assay type: functional
[12] = target: T4, Mannose-6-phosphate isomerase (Homo sapiens, UniProt P34949); experiment: MPI inhibition at elevated mannose 6-phosphate – biochemical, fluorescence intensity, high mannose 6-phosphate, primary screen (AID 1220)
T4 sequence (P34949 whole entry): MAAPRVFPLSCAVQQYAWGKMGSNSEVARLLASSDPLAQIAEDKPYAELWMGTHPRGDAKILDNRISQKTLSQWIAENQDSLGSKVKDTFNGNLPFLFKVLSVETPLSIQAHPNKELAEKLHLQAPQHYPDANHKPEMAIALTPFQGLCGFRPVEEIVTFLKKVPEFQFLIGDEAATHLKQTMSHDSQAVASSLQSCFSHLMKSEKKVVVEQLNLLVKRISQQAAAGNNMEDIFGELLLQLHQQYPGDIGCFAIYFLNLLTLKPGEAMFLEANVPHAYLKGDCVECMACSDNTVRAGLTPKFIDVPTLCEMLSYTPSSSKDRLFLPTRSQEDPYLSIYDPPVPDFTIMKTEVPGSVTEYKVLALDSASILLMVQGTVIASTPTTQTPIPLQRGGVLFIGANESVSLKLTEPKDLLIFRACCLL

[13] = viability loss in HeLa cells – cytotoxicity control for MgcRacGAP inhibitor project, dose response (AID 624300); assay type: functional
[14] = target: T5, Rac GTPase-activating protein 1 (Homo sapiens, UniProt Q9H0H5); experiment: blockers of MgcRacGAP-driven Rac1 GTP hydrolysis – biochemical, ADP Hunter fluorescence, primary and confirmatory, confirmation (AID 624330); assay type: functional
T5 sequence (Q9H0H5 whole entry): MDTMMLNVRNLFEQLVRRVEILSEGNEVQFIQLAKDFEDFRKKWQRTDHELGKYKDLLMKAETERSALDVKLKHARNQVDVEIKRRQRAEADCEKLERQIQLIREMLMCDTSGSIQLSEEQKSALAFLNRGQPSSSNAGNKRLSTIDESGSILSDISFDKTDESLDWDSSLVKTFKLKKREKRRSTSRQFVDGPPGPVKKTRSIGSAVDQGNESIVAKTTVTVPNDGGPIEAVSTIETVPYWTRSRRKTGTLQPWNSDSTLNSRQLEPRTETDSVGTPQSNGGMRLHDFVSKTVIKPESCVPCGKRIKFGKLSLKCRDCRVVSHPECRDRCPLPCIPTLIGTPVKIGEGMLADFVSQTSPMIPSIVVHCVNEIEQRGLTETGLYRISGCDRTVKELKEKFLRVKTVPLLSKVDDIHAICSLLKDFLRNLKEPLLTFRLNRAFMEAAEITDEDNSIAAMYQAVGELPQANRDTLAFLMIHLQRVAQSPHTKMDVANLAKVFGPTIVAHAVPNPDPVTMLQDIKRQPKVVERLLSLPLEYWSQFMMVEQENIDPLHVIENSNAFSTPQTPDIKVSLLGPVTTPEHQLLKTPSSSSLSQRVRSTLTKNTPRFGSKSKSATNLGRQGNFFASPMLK

Streptococcus = experiment: GAS UMAA2166 growth inhibition – luminescence, BacTiterGlo, counter-screen for streptokinase expression inhibitor project, dose response (AID 1915); assay type: functional, organism-based;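 further: potency for reduction of bacterial viability or growth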
[15] = tested on: Streptococcus sp. 'group A'; experiment: Streptococcus pyogenes SK(-)GAS viability under kanamycin – luminescence, BacTiterGlo, confirmation, counter-screen for streptokinase expression inhibitor project, dose response (AID 1900); assay type: functional, organism-based

Chain of Albumin (P02769 whole entry): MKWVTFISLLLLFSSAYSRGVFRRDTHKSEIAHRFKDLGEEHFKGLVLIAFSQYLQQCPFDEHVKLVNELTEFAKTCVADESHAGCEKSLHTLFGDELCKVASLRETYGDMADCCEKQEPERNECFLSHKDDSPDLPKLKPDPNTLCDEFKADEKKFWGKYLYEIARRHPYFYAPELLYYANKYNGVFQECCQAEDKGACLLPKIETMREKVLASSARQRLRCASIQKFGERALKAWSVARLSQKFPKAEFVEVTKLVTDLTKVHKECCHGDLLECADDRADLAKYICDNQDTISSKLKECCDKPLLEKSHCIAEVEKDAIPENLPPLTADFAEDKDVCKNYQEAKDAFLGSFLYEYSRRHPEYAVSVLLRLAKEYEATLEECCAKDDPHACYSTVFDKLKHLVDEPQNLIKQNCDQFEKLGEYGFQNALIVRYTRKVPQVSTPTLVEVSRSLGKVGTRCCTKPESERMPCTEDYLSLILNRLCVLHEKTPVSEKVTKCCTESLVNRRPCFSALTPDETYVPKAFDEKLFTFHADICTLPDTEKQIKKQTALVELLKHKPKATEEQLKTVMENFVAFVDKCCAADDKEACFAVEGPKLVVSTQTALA
Chain of Melanocortin receptor 4 (P32245 whole entry): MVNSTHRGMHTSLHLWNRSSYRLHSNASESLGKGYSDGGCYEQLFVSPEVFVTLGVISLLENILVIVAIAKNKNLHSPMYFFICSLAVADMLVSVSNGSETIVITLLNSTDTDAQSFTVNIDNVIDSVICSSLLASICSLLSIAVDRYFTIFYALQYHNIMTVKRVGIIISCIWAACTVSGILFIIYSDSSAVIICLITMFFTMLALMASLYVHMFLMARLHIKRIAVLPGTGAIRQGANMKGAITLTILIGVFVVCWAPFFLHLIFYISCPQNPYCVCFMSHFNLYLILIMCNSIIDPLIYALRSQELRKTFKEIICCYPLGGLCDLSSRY

Compound | IC50 [4] | EC50 [5] | IC50 (cells [8]) | EC50 (cells [9]) | IC50 [10] | further results
CC1CCC(C(C)C)C(OC(=O)C[n+]2cc(-c3ccc(Cl)cc3)n3c2CCCCC3)C1 (centres undefined) |  |  |  |  |  | EC50 (Melanocortin receptor 4): > 9.91 µM (active); EC50 [1]: > 160 µM (inactive); EC50 [2]: 0.459 µM (active); AC50 (INS1): 4.91 µM (active); AC50 [3]: 6.97 µM (active)
C=CCNC(S)=NNc1nc(O)c2c(n1)-c1ccccc1CC21CCCCC1 | 73.1 µM (inactive) |  |  |  |  | 
Cc1c(Cl)cccc1Nc1nc(NCCO)c2ccccc2n1 |  | 2.94 µM (active) | > 29.9 µM (inactive) | > 29.9 µM (inactive) | 6.83 µM (active) | EC50 [6]: > 60 µM (not active); EC50 [7]: 1.2 µM (active)
O=C(CCNC(=O)c1ccc(Br)cc1)NNC(=O)c1ccccc1O |  |  |  |  |  | IC50 (Albumin): > 94.1 µM (inactive)
CC(C)c1cc(C(=O)NN=C(S)NCc2ccco2)c(O)c(C(C)C)c1 | 18.8 µM (inactive) |  |  |  |  | 
O=c1nc(N2CCCCC2)nc(Nc2ccccc2)[nH]1 |  | 3.44 µM (active) |  |  | 4.65 µM (active) | IC50 (Aminopeptidase N): 51.9 µM (active)
COc1ccc(NC(=O)NNC(=O)c2ccc3ccccc3c2O)cc1OC | > 122 µM (inactive) |  |  |  |  | IC50 (Albumin): > 94.1 µM (inactive)
Cc1ccc(N2CN(CCc3ccccc3)CN=C2S)cc1 |  | 1.16 µM (active) | > 29.9 µM (inactive) | > 29.9 µM (inactive) | 7.74 µM (active) | 
CC1CCCN(CCC(=O)c2ccc(Br)cc2)C1 (centres undefined) |  | 1.67 µM (active) | > 29.9 µM (inactive) | > 29.9 µM (inactive) | 20.1 µM (inactive) | IC50 (cells [11]): 15.2 µM (active); IC50 [12]: > 50 µM (not active)
CN(CCc1ccccc1)Cc1c[nH]c2ccccc12 |  | 1.05 µM (active) | > 29.9 µM (inactive) | > 29.9 µM (inactive) | 13.2 µM (inactive) | 
O=C(Cc1nnc(NC(=O)Nc2ccccc2)s1)Nc1ccccc1 |  | > 0.0015 µM (active) | > 29.9 µM (inactive) | > 29.9 µM (inactive) | > 1.11 µM (active) | 
CN(C)c1ccc(Sc2ccc3nc(N)nc(N)c3c2)cc1 |  |  |  |  |  | CC50 [13]: 100 µM (active); IC50 [14]: 50.2 µM (active)
Cn1ccc2c(N3CCCCCCC3)cc3c(c21)C1CCC3O1 (centres undefined) | > 122 µM (inactive) |  |  |  |  | 
COc1ccc(-c2cc(C3CCN(CC(O)C(F)(F)F)CC3)[nH]n2)cc1 (centres undefined) |  | 3.52 µM (active) | > 29.9 µM (inactive) | > 29.9 µM (inactive) | 7.6 µM (active) | 
CCCCNC(=S)N/N=C/c1cccc(OCC)c1O | > 122 µM (inactive) |  |  |  |  | 
O=C(CP(=O)(c1ccccc1)c1ccccc1)N/N=C/c1cc(Br)cc(Br)c1O |  |  |  |  |  | IC50 (Albumin): > 94.2 µM (inactive); EC50 (Streptococcus): 2.32 µM (active); EC50 [15]: 0.8 µM (active); IC50 (Aminopeptidase N): 12.4 µM (active)
